Results reported in patent publication US10975077B2 (Novira Therapeutics, Inc., priority 2016, dated 2021).

System: HBV (encapsidated HBV DNA, HepG2.2.15 cells)
Assay: HBV replication inhibition assay, BDNA assay in HepG2.2.15 cells
Format: cell-based
How it was run: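 Encapsidated HBV DNA in DNase-treated, proteinase K-lysed supernatant was measured by branched DNA after 6 days' compound exposure, refreshed on day 3, of HepG2.2.15 cells in 0.5% DMSO. Signals normalized to DMSO-treated wells; EC50 from nonlinear regression of inhibition against log concentration.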

[1] = Hepatitis B virus, HepG2.2.15, Activity in BDNA-assay

Compound | EC50 [1] | EC50 (Activity in BDNA-assay)
C[C@@H]1Cc2nn3c(c2CN1C(=O)Nc1ccc(F)c(Cl)c1)C(=O)N(CC(F)F)CC(CO)C3 (single isomer, unassigned) [Compound 092_D1, (3R,8R*)—N-(3-chloro-4-fluorophenyl)-10-(2,2-difluoroethyl)-8-(hydroxymethyl)-3-methyl-11-oxo-1,3,4,7,8,9,10,11-octahydro-2H-pyrido[4′,3′:3,4]pyrazolo[1,5-a][1,4]diazepine-2-carboxamide] | 1 to 100 nM | –
CN1CC(CNCC(F)F)Cn2nc3c(c2C1=O)CN(C(=O)Nc1ccc(F)c(C#N)c1)CC3 (single isomer, unassigned) [Compound 118_E1, (R*)—N-(3-cyano-4-fluorophenyl)-8-(((2,2-difluoroethyl)amino)methyl)-10-methyl-11-oxo-1,3,4,7,8,9,10,11-octahydro-2H-pyrido[4′,3′:3,4]pyrazolo[1,5-a][1,4]diazepine-2-carboxamide] | 100 to 500 nM | –
CN1CC(O)Cn2nc3c(c2C1=O)CN(C(=O)Nc1ccc(F)c(Cl)c1)CC3 (stereo not drawn) [Compound 004, N-(3-chloro-4-fluorophenyl)-8-hydroxy-10-methyl-11-oxo-1,3,4,7,8,9,10,11-octahydro-2H-pyrido[4′,3′:3,4]pyrazolo[1,5-a][1,4]diazepine-2-carboxamide] | 1 to 100 nM | –
CN1C/C=C\Cn2nc3c(c2C1=O)CN(C(=O)Nc1ccc(F)c(Cl)c1)CC3 [Compound 111, (Z)—N-(3-chloro-4-fluorophenyl)-11-methyl-12-oxo-3,4,7,10,11,12-hexahydropyrido[4′,3′:3,4]pyrazolo[1,5-a][1,4]diazocine-2 (1H)-carboxamide] | 1 to 100 nM | –
CN1C(=O)c2c3c(nn2CC1CO)CCN(C(=O)Nc1ccc(F)c(Cl)c1)C3 (stereo not drawn) [Compound 044, N-(3-chloro-4-fluorophenyl)-8-(hydroxymethyl)-9-methyl-10-oxo-3,4,7,8,9,10-hexahydropyrido[4′,3′:3,4]pyrazolo[1,5-a]pyrazine-2 (1H)-carboxamide] | 1 to 100 nM | –
CCC(O)C1CN(C)C(=O)c2c3c(nn2C1)CCN(C(=O)Nc1cc(F)c(F)c(F)c1)C3 (single isomer, unassigned) [Compound 104_E1, (R*)-8-((S*)-1-hydroxypropyl)-10-methyl-11-oxo-N-(3,4,5-trifluorophenyl)-1,3,4,7,8,9,10,11-octahydro-2H-pyrido[4′,3′:3,4]pyrazolo[1,5-a][1,4] diazepine-2-carboxamide] | 1 to 100 nM | –
CN1CC(CNCC(F)F)Cn2nc3c(c2C1=O)CN(C(=O)Nc1ccc(F)c(C(F)(F)F)c1)CC3 (single isomer, unassigned) [Compound 119_E1, (R*)-8-(((2,2-difluoroethyl)amino)methyl)-N-(4-fluoro-3-(trifluoromethyl)phenyl)-10-methyl-11-oxo-1,3,4,7,8,9,10,11-octahydro-2H-pyrido[4′,3′:3,4]pyrazolo[1,5-a][1,4]diazepine-2-carboxamide] | – | 100 to 500 nM
CC[C@H](O)[C@@H]1CN(C)C(=O)c2c3c(nn2C1)CCN(C(=O)Nc1cc(Cl)c(F)cc1F)C3 (single isomer, unassigned) [Compound 096_E1, (R*)—N-(5-chloro-2,4-difluorophenyl)-8-((S*)-1-hydroxypropyl)-10-methyl-11-oxo-1,3,4,7,8,9,10,11-octahydro-2H-pyrido[4′,3′:3,4]pyrazolo[1,5-a][1,4]diazepine-2-carboxamide] | 1 to 100 nM | –
CN1CC(CNCC(F)F)Cn2nc3c(c2C1=O)CN(C(=O)Nc1ccc(F)c(C#N)c1)CC3 (stereo not drawn) [Compound 118, N-(3-cyano-4-fluorophenyl)-8-(((2,2-difluoroethyl)amino)methyl)-10-methyl-11-oxo-1,3,4,7,8,9,10,11-octahydro-2H-pyrido[4′,3′:3,4]pyrazolo[1,5-a][1,4]diazepine-2-carboxamide] | 1 to 100 nM | –
C=CC(O)C1CN(C)C(=O)c2c3c(nn2C1)CC(C)N(C(=O)Nc1ccc(F)c(Br)c1)C3 [Compound 124_D2, (3R,8S*)—N-(3-bromo-4-fluorophenyl)-8-((S*)-1-hydroxyallyl)-3,10-dimethyl-11-oxo-1,3,4,7,8,9,10,11-octahydro-2H-pyrido[4′,3′:3,4]pyrazolo[1,5-a][1,4]diazepine-2-carboxamide] | – | 1 to 100 nM
COC(=O)C1CCn2nc3c(c2C(=O)N1C)CN(C(=O)Nc1ccc(F)c(Cl)c1)CC3 (stereo not drawn) [Compound 057, methyl 2-((3-chloro-4-fluorophenyl)carbamoyl)-10-methyl-11-oxo-1,3,4,7,8,9,10,11-octahydro-2H-pyrido[4′,3′:3,4]pyrazolo[1,5-a][1,4]diazepine-9-carboxylate] | 100 to 500 nM | –
C[C@@H]1Cc2nn3c(c2CN1C(=O)Nc1cc(C(F)(F)F)c(F)cc1F)C(=O)N(C)CC(CO)C3 (single isomer, unassigned) [Compound 082_D2, (3R,8R*)—N-(2,4-difluoro-5-(trifluoromethyl)phenyl)-8-(hydroxymethyl)-3,10-dimethyl-11-oxo-1,3,4,7,8,9,10,11-octahydro-2H-pyrido[4′,3′:3,4]pyrazolo[1,5-a][1,4]diazepine-2-carboxamide] | – | 100 to 500 nM
CCC(O)C1CN(C)C(=O)c2c3c(nn2C1)CC(C)N(C(=O)Nc1ccc(F)c(C(F)(F)F)c1)C3 [Compound 107_D2, (3R,8R*)—N-(4-fluoro-3-(trifluoromethyl)phenyl)-8-((R)-1-hydroxypropyl)-3,10-dimethyl-11-oxo-1,3,4,7,8,9,10,11-octahydro-2H-pyrido[4′,3′:3,4]pyrazolo[1,5-a][1,4] diazepine-2-carboxamide] | – | 1 to 100 nM
CCC(O)C1CN(C)C(=O)c2c3c(nn2C1)CCN(C(=O)Nc1ccc(F)c(C#N)c1F)C3 (single isomer, unassigned) [Compound 098_E4, (R*)—N-(3-cyano-2,4-difluorophenyl)-8-((R*)-1-hydroxypropyl)-10-methyl-11-oxo-1,3,4,7,8,9,10,11-octahydro-2H-pyrido[4′,3′:3,4]pyrazolo[1,5-a][1,4]diazepine-2-carboxamide] | – | 500 to 1000 nM
CN1CC(F)Cn2nc3c(c2C1=O)CN(C(=O)Nc1cc(Cl)c(F)cc1F)CC3 (stereo not drawn) [Compound 012, N-(5-chloro-2,4-difluorophenyl)-8-fluoro-10-methyl-11-oxo-1,3,4,7,8,9,10,11-octahydro-2H-pyrido[4′,3′:3,4]pyrazolo[1,5-a][1,4]diazepine-2-carboxamide] | 1 to 100 nM | –
O=C(Nc1ccc(F)c(Cl)c1)N1CCc2nn3c(c2C1)C(=O)N(CC(F)(F)F)CC(CO)C3 (stereo not drawn) [Compound 051, N-(3-chloro-4-fluorophenyl)-8-(hydroxymethyl)-11-oxo-10-(2,2,2-trifluoroethyl)-1,3,4,7,8,9,10,11-octahydro-2H-pyrido[4′,3′: 3,4]pyrazolo[1,5-a][1,4]diazepine-2-carboxamide] | 1 to 100 nM | –
CN1CC(CN2CCC(F)(F)C2)Cn2nc3c(c2C1=O)CN(C(=O)Nc1ccc(F)c(C#N)c1)CC3 (stereo not drawn) [Compound 067, N-(3-cyano-4-fluorophenyl)-8-((3,3-difluoropyrrolidin-1-yl)methyl)-10-methyl-11-oxo-1,3,4,7,8,9,10,11-octahydro-2H-pyrido[4′,3′:3,4]pyrazolo[1,5-a][1,4]diazepine-2-carboxamide] | 100 to 500 nM | –
CN1CC(F)Cn2nc3c(c2C1=O)CN(C(=O)Nc1ccc(F)c(C(F)(F)F)c1)CC3 (stereo not drawn) [Compound 011, 8-fluoro-N-(4-fluoro-3-(trifluoromethyl)phenyl)-10-methyl-11-oxo-1,3,4,7,8,9,10,11-octahydro-2H-pyrido[4′,3′:3,4]pyrazolo[1,5-a][1,4]diazepine-2-carboxamide] | 1 to 100 nM | –
CN1CCCCn2nc3c(c2C1=O)CN(C(=O)Nc1ccc(F)c(Cl)c1)CC3 [Compound 110, N-(3-chloro-4-fluorophenyl)-11-methyl-12-oxo-3,4,7,8,9,10,11,12-octahydropyrido[4′,3′:3,4]pyrazolo[1,5-a][1,4]diazocine-2 (1H)-carboxamide] | 1 to 100 nM | –
C[C@@H]1Cc2nn3c(c2CN1C(=O)Nc1ccc(F)c(Cl)c1)C(=O)N(CC(F)F)CCC3 [Compound 072, (3R)—N-(3-chloro-4-fluorophenyl)-10-(2,2-difluoroethyl)-3-methyl-11-oxo-1,3,4,7,8,9,10,11-octahydro-2H-pyrido[4′,3′:3,4]pyrazolo[1,5-a][1,4]diazepine-2-carboxamide] | 1 to 100 nM | –
C[C@@H]1Cc2nn3c(c2CN1C(=O)Nc1ccc(F)c(C#N)c1)C(=O)N(C)CC1(CC(F)C1)C3 (stereo partly drawn) [Compound 142, (R)-N-(3-Cyano-4-fluorophenyl)-3-fluoro-3′,10′-dimethyl-11′-oxo-1′,3′,4′,9′,10′,11′-hexahydro-2′H,7′H-spiro[cyclobutane-1,8′-pyrido[4′,3′:3,4]pyrazolo[1,5-a][1,4]diazepine]-2′-carboxamide] | 1 to 100 nM | –
C[C@@H]1Cc2nn3c(c2CN1C(=O)Nc1ccc(F)c(C#N)c1)C(=O)N(C)[C@H](CF)C3 [Compound 149, (3R,8S)-N-(3-cyano-4-fluorophenyl)-8-(fluoromethyl)-3,9-dimethyl-10-oxo-3,4,7,8,9,10-hexahydropyrido[4′,3′:3,4]pyrazolo[1,5-a]pyrazine-2(1H)-carboxamide] | 1 to 100 nM | –
C[C@@H]1Cc2nn3c(c2CN1C(=O)Nc1ccc(F)c(C(F)(F)F)c1F)C(=O)N(C)CC(CO)C3 (single isomer, unassigned) [Compound 083_D1, (3R,8S*)—N-(2,4-difluoro-3-(trifluoromethyl)phenyl)-8-(hydroxymethyl)-3,10-dimethyl-11-oxo-1,3,4,7,8,9,10,11-octahydro-2H-pyrido[4′,3′:3,4]pyrazolo[1,5-a][1,4] diazepine-2-carboxamide] | 1 to 100 nM | –
CN1CCn2nc3c(c2C1=O)CN(C(=O)Nc1ccc(F)c(Cl)c1)CC3 [Compound 045, N-(3-chloro-4-fluorophenyl)-9-methyl-10-oxo-3,4,7,8,9,10-hexahydropyrido[4′,3′:3,4]pyrazolo [1,5-a]pyrazine-2 (1H)-carboxamide] | 1 to 100 nM | –
